# Source: ChEMBL document CHEMBL5543108, “Structure-based design and synthesis of BML284 derivatives: A novel class of colchicine-site noncovalent tubulin degradation agents” (Eur J Med Chem, 2024)
# pIC50: −log10 of the molar value.
# How the values were obtained:
# HeLa = assay: Antiproliferative activity against human HeLa cells assessed as reduction in cell viability measured after 72 hrs; type: functional, cell-based
# K562 = assay: Antiproliferative activity against human K562 cells assessed as reduction in cell viability measured after 72 hrs; type: functional, cell-based; settings: K562, 72 h
# NCI/ADR-RES = assay: Antiproliferative activity against human MCF7ADR cells assessed as reduction in cell viability measured after 72 hrs; type: functional, cell-based
# [1] = Selectivity ratio of IC50 for human A2780T cells to IC50 for human A2780S
# [2] = Selectivity ratio of IC50 for paclitaxel resistant human A549/Taxol cells to IC50 for human A549
# A2780S [3] = assay: Induction of cell cycle arrest in human A2780S cells assessed as accumulation of cells at G0/G1 phase at 3 nM measured after 24 hrs by propidium iodide staining based analysis (reference value: 51.71%); type: functional
# A2780S [4] = assay: Induction of cell cycle arrest in human A2780S cells assessed as accumulation of cells at G0/G1 phase at 10 nM measured after 24 hrs by propidium iodide staining based analysis (reference value: 51.71%); type: functional
# A2780S [5] = assay: Induction of cell cycle arrest in human A2780S cells assessed as accumulation of cells at G0/G1 phase at 30 nM measured after 24 hrs by propidium iodide staining based analysis (reference value: 51.71%); type: functional
# A2780S [6] = assay: Induction of cell cycle arrest in human A2780S cells assessed as accumulation of cells at G2/M phase at 30 nM measured after 24 hrs by propidium iodide staining based analysis (reference value: 18.43%); type: functional
# A2780S [7] = assay: Induction of cell cycle arrest in human A2780S cells assessed as accumulation of cells at S phase at 3 nM measured after 24 hrs by propidium iodide staining based analysis (reference value: 29.85%); type: functional
# A2780S [8] = assay: Induction of cell cycle arrest in human A2780S cells assessed as accumulation of cells at S phase at 30 nM measured after 24 hrs by propidium iodide staining based analysis (reference value: 29.85%); type: functional
# A2780/Taxol [9] = assay: Induction of cell cycle arrest in human A2780T cells assessed as accumulation of cells at G0/G1 phase at 30 nM measured after 24 hrs by propidium iodide staining based analysis (reference value: 46.141%); type: functional
# A2780/Taxol [10] = assay: Induction of cell cycle arrest in human A2780T cells assessed as accumulation of cells at G2/M phase at 10 nM measured after 24 hrs by propidium iodide staining based analysis (reference value: 24.13%); type: functional
# A2780/Taxol [11] = assay: Induction of cell cycle arrest in human A2780T cells assessed as accumulation of cells at G2/M phase at 30 nM measured after 24 hrs by propidium iodide staining based analysis (reference value: 24.13%); type: functional
# A2780/Taxol [12] = assay: Induction of cell cycle arrest in human A2780T cells assessed as accumulation of cells at G2/M phase at 300 nM measured after 24 hrs by propidium iodide staining based analysis (reference value: 24.13%); type: functional
# A2780S [13] = assay: Induction of apoptosis in human A2780S cells assessed as total number of late apoptotic cells at 30 nM measured after 48 hrs by Annexin-V-FITC and PI staining based flow cytometry analysis (reference value: 3.42%); type: functional
# A2780S [14] = assay: Induction of apoptosis in human A2780S cells assessed as total number of late apoptotic cells at 100 nM measured after 48 hrs by Annexin-V-FITC and PI staining based flow cytometry analysis (reference value: 3.42%); type: functional
# A2780S [15] = assay: Induction of apoptosis in human A2780S cells assessed as total number of late apoptotic cells at 300 nM measured after 48 hrs by Annexin-V-FITC and PI staining based flow cytometry analysis (reference value: 3.42%); type: functional
# A2780/Taxol [16] = assay: Induction of apoptosis in human A2780T cells assessed as total number of late apoptotic cells at 100 nM measured after 48 hrs by Annexin-V-FITC and PI staining based flow cytometry analysis (reference value: 3.42%); type: functional
# A2780/Taxol [17] = assay: Induction of apoptosis in human A2780T cells assessed as total number of late apoptotic cells at 300 nM measured after 48 hrs by Annexin-V-FITC and PI staining based flow cytometry analysis (reference value: 3.42%); type: functional
# HUVEC = assay: Antivascular activity against human HUVEC cells assessed as inhibition of capillary tube formation at 40 nM incubated for 6 hrs by microscopy based analysis relative to control; type: functional; parameters: scale not given: the % may be the effect or the level left
# A2780S [18] = assay: Antitumor activity against human A2780S cells xenografted in mouse model assessed as tumor growth inhibition at 20 mg/kg, iv administered every two days for 12 days relative to control; type: functional; settings: 288 h, time 12 day, read-out: TGI
# A2780S [19] = assay: Antitumor activity against human A2780S cells xenografted in mouse model assessed as tumor growth inhibition at 30 mg/kg, iv administered every two days for 12 days relative to control; type: functional; settings: 288 h, time 12 day, read-out: TGI
# A2780/Taxol [20] = assay: Antitumor activity against human A2780T cells xenografted in mouse model assessed as tumor growth inhibition at 10 mg/kg, iv administered every two days for 18 days relative to control; type: functional; settings: 432 h, time 18 day, read-out: TGI
# A2780/Taxol [21] = assay: Antitumor activity against human A2780T cells xenografted in mouse model assessed as tumor growth inhibition at 20 mg/kg, iv administered every two days for 18 days relative to control; type: functional; settings: 432 h, time 18 day, read-out: TGI
# A2780/Taxol [22] = assay: Antitumor activity against human A2780T cells xenografted in mouse model assessed as tumor growth inhibition at 40 mg/kg, iv administered every two days for 18 days relative to control; type: functional; settings: 432 h, time 18 day, read-out: TGI
# [23] = Toxicity in mouse xenografted with human A2780T cells assessed as effect on body weight at 10 to 30 mg/kg, iv measured upto 18 days; type: organism-based, A2780/Taxol; settings: in vivo, 432 h, dose 10-30 mg/kg, time < 18 day
# [24] = Toxicity in mouse xenografted with human A2780S cells assessed as side effects at 10 to 30 mg/kg, iv measured upto 12 days; type: organism-based; settings: in vivo, 288 h, dose 10-30 mg/kg, time < 12 day
# [25] = Toxicity in mouse xenografted with human A2780T cells assessed as side effects at 10 to 30 mg/kg, iv measured upto 18 days; type: organism-based, A2780/Taxol; settings: in vivo, 432 h, dose 10-30 mg/kg, time < 18 day
# [26] = Tmax in male Sprague-Dawley rat at 10 mg/kg, iv; type: ADME, organism-based; settings: in vivo
# [27] = Clearance in male Sprague-Dawley rat at 10 mg/kg, iv; type: ADME, organism-based; settings: in vivo
# [28] = Volume of distribution at steady state in male Sprague-Dawley rat at 10 mg/kg, iv; type: ADME, organism-based; settings: in vivo, read-out: Vdss
# [29] = Bioavailability in male Sprague-Dawley rat at 10 mg/kg, iv; type: ADME, organism-based; settings: in vivo
# [30] = AUC (0 to t) in male Sprague-Dawley rat at 10 mg/kg, po; type: ADME, organism-based; settings: in vivo
# [31] = Cmax in male Sprague-Dawley rat at 10 mg/kg, po; type: ADME, organism-based; settings: in vivo
# Tubulin (Homo sapiens) = Tubulin (Homo sapiens) (UniProt P68371+Q9H4B7+P0DPH7+P68366+Q13509+Q71U36+P04350+Q3ZCM7+P07437+P68363+Q9BQE3+Q6PEY2+Q13885+Q9BVA1+Q9BUF5); assay: Induction of tubulin degradation in human HeLa cells measured after 24 hrs by immunoblot analysis; type: cell-based; settings: dose <= 50.0 µM
compound,measurement,setting,value
COc1cccc(-c2cc(NCc3ccc4[nH]ccc4c3)nc(N)n2)c1,pIC50,HeLa,7.30
same,pIC50,K562,7.52
same,pIC50,NCI/ADR-RES,7.49
same,Ratio IC50,[1],0.89
same,Ratio IC50,[2],1.1
same,Activity,A2780S [3],47.48%
same,Activity,A2780S [4],48.57%
same,Activity,A2780S [5],48.16%
same,Activity,A2780S [6],23.82%
same,Activity,A2780S [7],29.35%
same,Activity,A2780S [8],28.02%
same,Activity,A2780/Taxol [9],44.27%
same,Activity,A2780/Taxol [10],20.61%
same,Activity,A2780/Taxol [11],20%
same,Activity,A2780/Taxol [12],83.98%
same,Activity,A2780S [13],5.29%
same,Activity,A2780S [14],14.43%
same,Activity,A2780S [15],15.57%
same,Activity,A2780/Taxol [16],14.43%
same,Activity,A2780/Taxol [17],15.57%
same,Activity,HUVEC,100%
same,inhibition in vivo at 20 mg/kg,A2780S [18],63.6%
same,inhibition in vivo at 30 mg/kg,A2780S [19],79.4%
same,inhibition in vivo at 10 mg/kg,A2780/Taxol [20],52.2%
same,inhibition in vivo at 20 mg/kg,A2780/Taxol [21],68.2%
same,inhibition in vivo at 40 mg/kg,A2780/Taxol [22],82%
same,Activity,[23],Non-Toxic
same,Activity,[24],Toxic
same,Activity,[25],Toxic
same,Tmax,[26],4.8 min
same,clearance,[27],42.5 mL/min/kg
same,Vd,[28],7.43 L/kg
same,bioavailability,[29],10.5%
same,AUC(0-t),[30],447 ng·h/mL
same,Cmax,[31],77.9 ng/mL
same,Activity,Tubulin (Homo sapiens),Dose-Dependent Effect
